The values that follow are results of earlier work, collected in patent publication US4127537A, “Novel tetracosapeptides, intermediates therefor and pharmaceutical compositions and methods employing said tetracosapeptides” (priority 1977, dated 1978).

Series [1] relates to brain opiate receptor sites. Conditions: natural peptide; Bradbury et al., Nature 260, 793 (1976).
The next series has as its system rat. As to conditions: injected directly into the brain of the rat; Belluzzi et al., Nature 260, 625 (1976).

As to “H-Tyr-Gly-Gly-Phe-Met-OH [methionine enkephalin]”, the “binding to partially purified brain opiate receptor sites” value in series [1] is “binds stereo-specifically”. Also, the analgesic activity result in the series on rat is reported as “weak analgesic agent of short duration”.
